The text below walks through data of patent publication US4335211A, “Process for producing optically active cephalosporin analogs” (Kyowa Hakko Kogyo Co., Ltd., priority 1979, dated 1982).

A short description of this test: antimicrobial activity (statement in words). The format is cell-based. Conditions: less polar isomer (A) versus more polar isomer (B).

Turning to `N[C@@H](C(=O)N[C@@H]1C(=O)N2C(C(=O)O)=C(Cl)CC[C@H]12)c1ccccc1` [Example 1, (6R, 7S) 7-(R)-phenylglycinamido-3-chloro-1-azabicyclo[4,2,0]oct-2-en-8-on-2-carboxylic acid], the antimicrobial activity result is “greater antimicrobial activity”.
